Starred links: 1 amine or outer side, 2 acyl side, 3 side chain; linkers in the order of their positions; H or OH if unused. Non-standard residues stand in square brackets, D forms with d. Residues, ends and D or L forms follow the SMILES beside them. Groups on a side chain read outwards from the residue. *: point of attachment. C18 diacid = O=C(O)CCCCCCCCCCCCCCCCC(=O)*; αMePhe(2-F) = C[C@](N)(Cc1ccccc1F)C(=O)O; γGlu = O=C(O)[C@H](CCC(=O)[*:2])N[*:1]; αMeY = C[C@](N)(Cc1ccc(O)cc1)C(=O)O; 4Pal = N[C@@H](Cc1ccncc1)C(=O)O; αMeL = CC(C)C[C@](C)(N)C(=O)O; αMeS = C[C@](N)(CO)C(=O)O; Orn = NCCC[C@H](N)C(=O)O; AEEA = NCCOCCOCC(=O)O; Aib = CC(C)(N)C(=O)O
Columns and labels:
Assay type in all cases: cell-based
human GcgR = human GcgR (Homo sapiens, UniProt P47871); experiment: Functional cAMP activity in the presence of 1% HSA; conditions: read-out: cAMP Rel EC50, hGcgR
Chain of human GcgR (P47871 26-477): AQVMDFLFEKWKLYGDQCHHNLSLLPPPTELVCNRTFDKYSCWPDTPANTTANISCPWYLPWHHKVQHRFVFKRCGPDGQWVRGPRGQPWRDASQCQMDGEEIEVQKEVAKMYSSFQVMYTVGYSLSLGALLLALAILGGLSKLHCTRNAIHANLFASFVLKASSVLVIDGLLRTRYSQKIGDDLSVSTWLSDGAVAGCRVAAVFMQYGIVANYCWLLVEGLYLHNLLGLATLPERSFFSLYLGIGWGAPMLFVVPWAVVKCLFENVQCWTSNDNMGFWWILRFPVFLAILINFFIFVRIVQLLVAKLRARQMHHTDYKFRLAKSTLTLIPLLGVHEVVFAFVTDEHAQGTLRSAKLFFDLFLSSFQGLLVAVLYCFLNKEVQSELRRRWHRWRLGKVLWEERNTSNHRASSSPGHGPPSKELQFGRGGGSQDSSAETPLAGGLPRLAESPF

hGIPR [1] = target: T1, hGIPR (Homo sapiens, UniProt P48546); experiment: Functional cAMP activation in the presence of 0.1% casein (no HSA); conditions: read-out: Relative cAMP EC50, hGIPR;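 also: intracellular cAMP rise after 30 min at 37 °C read by HTRF against a standard curve, scaled between buffer alone (0%) and top control ligand concentration (100%), four-parameter fit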
T1 sequence (P48546 22-466): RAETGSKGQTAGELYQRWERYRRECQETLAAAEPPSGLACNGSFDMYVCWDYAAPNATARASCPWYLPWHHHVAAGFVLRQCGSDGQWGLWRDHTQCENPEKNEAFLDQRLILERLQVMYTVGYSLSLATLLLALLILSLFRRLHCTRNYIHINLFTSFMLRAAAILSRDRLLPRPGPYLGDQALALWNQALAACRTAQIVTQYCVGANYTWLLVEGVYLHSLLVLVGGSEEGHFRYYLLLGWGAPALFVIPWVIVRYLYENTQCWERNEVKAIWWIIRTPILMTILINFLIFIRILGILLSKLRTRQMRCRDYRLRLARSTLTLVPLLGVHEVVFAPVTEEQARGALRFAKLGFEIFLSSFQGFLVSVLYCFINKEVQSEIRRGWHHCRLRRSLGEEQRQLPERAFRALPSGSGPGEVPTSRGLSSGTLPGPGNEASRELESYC

hGcgR = hGcgR (Homo sapiens, UniProt P47871); experiment: as above; conditions: read-out: Relative cAMP EC50, hGcgR;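 also: intracellular cAMP rise after 30 min at 37 °C, read by HTRF against a cAMP standard curve, scaled from buffer only (0%) to maximal control ligand response (100%)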
Chain of hGcgR (P47871 26-477): as the sequence (P47871 26-477) above

hGLP-1R [2] = target: T2, hGLP-1R (Homo sapiens, UniProt P43220); experiment: as above; conditions: read-out: Relative cAMP EC50, hGLP-1R;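 also: intracellular cAMP rise after 30 min at 37 °C read by HTRF, normalized between buffer only (0%) and maximal control ligand (100%), four-parameter variable-slope fit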
T2 sequence (P43220 24-463): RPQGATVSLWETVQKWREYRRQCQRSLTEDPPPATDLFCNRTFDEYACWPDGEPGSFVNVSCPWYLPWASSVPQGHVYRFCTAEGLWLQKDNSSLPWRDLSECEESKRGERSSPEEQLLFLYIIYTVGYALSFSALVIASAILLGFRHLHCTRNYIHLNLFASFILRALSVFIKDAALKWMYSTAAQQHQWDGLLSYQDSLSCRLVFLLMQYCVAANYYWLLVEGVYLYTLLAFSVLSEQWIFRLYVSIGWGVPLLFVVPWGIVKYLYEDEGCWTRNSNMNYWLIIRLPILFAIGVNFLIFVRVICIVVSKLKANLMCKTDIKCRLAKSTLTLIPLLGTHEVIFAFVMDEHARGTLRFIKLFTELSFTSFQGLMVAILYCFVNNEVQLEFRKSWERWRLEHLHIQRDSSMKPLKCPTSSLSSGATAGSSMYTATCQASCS

hGLP-1R [3] = target: T2, hGLP-1R; experiment: Functional cAMP activity in the presence of 1% HSA; conditions: read-out: cAMP Rel EC50, hGLP-1R
hGIPR [4] = target: T1, hGIPR; experiment: Functional cAMP activity in the presence of 1% HSA; conditions: read-out: cAMP Rel EC50, hGIPR

Row | Compound | EC50 (human GcgR) [nM] | EC50 (hGIPR [1]) [nM] | EC50 (hGcgR) [nM] | EC50 (hGLP-1R [2]) [nM] | EC50 (hGLP-1R [3]) [nM] | EC50 (hGIPR [4]) [nM]
1 | CC[C@H](C)[C@H](NC(=O)[C@H](CCCN)NC(=O)[C@H](CC(=O)O)NC(=O)[C@H](CC(C)C)NC(=O)[C@](C)(CC(C)C)NC(=O)[C@@H](NC(=O)[C@](C)(CO)NC(=O)[C@H](Cc1ccncc1)NC(=O)[C@H](CC(=O)O)NC(=O)[C@H](CO)NC(=O)[C@@H](NC(=O)[C@](C)(Cc1ccccc1F)NC(=O)[C@@H](NC(=O)CNC(=O)[C@H](CCC(N)=O)NC(=O)C(C)(C)NC(=O)[C@@H](N)Cc1ccc(O)cc1)[C@@H](C)O)[C@@H](C)O)[C@@H](C)CC)C(=O)N[C@@H](C)C(=O)N[C@@H](CCC(N)=O)C(=O)NC(C)(C)C(=O)N[C@@H](CCCN)C(=O)N[C@@H](Cc1ccccc1)C(=O)N[C@H](C(=O)N[C@H](CCC(=O)O)C(=O)N[C@@](C)(Cc1ccc(O)cc1)C(=O)N[C@@H](CC(C)C)C(=O)N[C@H](C(=O)N[C@@H](CCCCNC(=O)COCCOCCNC(=O)CC[C@H](NC(=O)CCCCCCCCCCCCCCCCC(=O)O)C(=O)O)C(=O)NCC(=O)NCC(=O)N1CCC[C@H]1C(=O)N[C@@H](CO)C(=O)N[C@@H](CO)C(=O)NCC(=O)N[C@@H](CCC(=O)O)C(=O)N1CCC[C@H]1C(=O)N1CCC[C@H]1C(=O)N1CCC[C@H]1C(=O)N[C@@H](CCC(=O)O)C(N)=O)[C@@H](C)CC)[C@@H](C)CC [Example 444] (H-Y[Aib]QGT[αMePhe(2-F)]TSD[4Pal][αMeS]I[αMeL]LD[Orn]IAQ[Aib][Orn]FI[dE][αMeY]LIK([AEEA-γGlu-C18 diacid])GGPSSGEPPPE-NH2) | 1280 | 0.0106 | 6.49 | 0.352 | 54.6 | 1.74
2 | CC[C@H](C)[C@H](NC(=O)[C@H](Cc1ccccc1)NC(=O)[C@H](C)NC(=O)C(C)(C)NC(=O)[C@H](CCC(N)=O)NC(=O)[C@H](C)NC(=O)[C@H](CCCCNC(=O)COCCOCCNC(=O)CC[C@H](NC(=O)CCCCCCCCCCCCCCCCC(=O)O)C(=O)O)NC(=O)[C@H](CCCCN)NC(=O)[C@H](CC(=O)O)NC(=O)[C@H](CC(C)C)NC(=O)[C@](C)(CC(C)C)NC(=O)[C@@H](NC(=O)[C@H](CO)NC(=O)[C@H](Cc1ccncc1)NC(=O)[C@H](CC(=O)O)NC(=O)[C@H](CO)NC(=O)[C@@H](NC(=O)[C@](C)(Cc1ccccc1F)NC(=O)[C@@H](NC(=O)CNC(=O)[C@H](CCC(N)=O)NC(=O)C(C)(C)NC(=O)[C@@H](N)Cc1ccc(O)cc1)[C@@H](C)O)[C@@H](C)O)[C@@H](C)CC)C(=O)N[C@@H](CCC(=O)O)C(=O)N[C@@H](Cc1ccc(O)cc1)C(=O)N[C@@H](CC(C)C)C(=O)N[C@@H](CCC(=O)O)C(=O)N[C@@H](CCC(=O)O)C(=O)NCC(=O)NCC(=O)N1CCC[C@H]1C(=O)N[C@@H](CO)C(=O)N[C@@H](CO)C(=O)NCC(=O)N[C@@H](C)C(=O)N1CCC[C@H]1C(=O)N1CCC[C@H]1C(=O)N1CCC[C@H]1C(=O)N[C@@H](CCC(=O)O)C(N)=O [Example 445] (H-Y[Aib]QGT[αMePhe(2-F)]TSD[4Pal]SI[αMeL]LDKK([AEEA-γGlu-C18 diacid])AQ[Aib]AFIEYLEEGGPSSGAPPPE-NH2) | 448 | 0.0206 | 10.1 | 0.731 | 23.2 | 2.41
3 | CC[C@H](C)[C@H](NC(=O)[C@H](Cc1ccccc1)NC(=O)[C@H](C)NC(=O)C(C)(C)NC(=O)[C@H](CCC(N)=O)NC(=O)[C@H](C)NC(=O)[C@H](CCCCNC(=O)CC[C@H](NC(=O)CC[C@H](NC(=O)CCCCCCCCCCCCCCCCC(=O)O)C(=O)O)C(=O)O)NC(=O)[C@H](CCCCN)NC(=O)[C@H](CC(=O)O)NC(=O)[C@H](CC(C)C)NC(=O)[C@](C)(CC(C)C)NC(=O)[C@@H](NC(=O)[C@H](CO)NC(=O)[C@H](Cc1ccncc1)NC(=O)[C@H](CC(=O)O)NC(=O)[C@H](CO)NC(=O)[C@@H](NC(=O)[C@](C)(Cc1ccccc1F)NC(=O)[C@@H](NC(=O)CNC(=O)[C@H](CCC(N)=O)NC(=O)C(C)(C)NC(=O)[C@@H](N)Cc1ccc(O)cc1)[C@@H](C)O)[C@@H](C)O)[C@@H](C)CC)C(=O)N[C@@H](CCC(=O)O)C(=O)N[C@@H](Cc1ccc(O)cc1)C(=O)N[C@@H](CC(C)C)C(=O)N[C@@H](CO)C(=O)N[C@@H](CCC(=O)O)C(=O)NCC(=O)NCC(=O)N1CCC[C@H]1C(=O)N[C@@H](CO)C(=O)N[C@@H](CO)C(=O)NCC(=O)N[C@@H](C)C(=O)N1CCC[C@H]1C(=O)N1CCC[C@H]1C(=O)N1CCC[C@H]1C(=O)N[C@@H](CO)C(N)=O [Example 446] (H-Y[Aib]QGT[αMePhe(2-F)]TSD[4Pal]SI[αMeL]LDKK([γGlu-γGlu-C18 diacid])AQ[Aib]AFIEYLSEGGPSSGAPPPS-NH2) | 516 | 0.0351 | 8.34 | 0.696 | 24.5 | 3.01
4 | CC[C@H](C)[C@H](NC(=O)[C@H](CC(C)C)NC(=O)[C@](C)(Cc1ccc(O)cc1)NC(=O)[C@@H](CCC(=O)O)NC(=O)[C@@H](NC(=O)[C@H](Cc1ccccc1)NC(=O)[C@H](CCCN)NC(=O)C(C)(C)NC(=O)[C@H](CCC(N)=O)NC(=O)[C@H](C)NC(=O)[C@H](CCCCNC(=O)CC[C@H](NC(=O)CC[C@H](NC(=O)CCCCCCCCCCCCCCCCC(=O)O)C(=O)O)C(=O)O)NC(=O)[C@H](CCCN)NC(=O)[C@H](CC(=O)O)NC(=O)[C@H](CC(C)C)NC(=O)[C@](C)(CC(C)C)NC(=O)[C@H](CCC(=O)O)NC(=O)[C@](C)(CO)NC(=O)[C@H](Cc1ccncc1)NC(=O)[C@H](CC(=O)O)NC(=O)[C@H](CO)NC(=O)[C@@H](NC(=O)[C@](C)(Cc1ccccc1F)NC(=O)[C@@H](NC(=O)CNC(=O)[C@H](CCC(N)=O)NC(=O)C(C)(C)NC(=O)[C@@H](N)Cc1ccc(O)cc1)[C@@H](C)O)[C@@H](C)O)[C@@H](C)CC)C(=O)N[C@@H](CCC(=O)O)C(=O)NCC(=O)NCC(=O)N1CCC[C@H]1C(=O)N[C@@H](CO)C(=O)N[C@@H](CO)C(=O)NCC(=O)N[C@@H](CCC(=O)O)C(=O)N1CCC[C@H]1C(=O)N1CCC[C@H]1C(=O)N1CCC[C@H]1C(=O)N[C@@H](CCC(=O)O)C(N)=O [Example 447] (H-Y[Aib]QGT[αMePhe(2-F)]TSD[4Pal][αMeS]E[αMeL]LD[Orn]K([γGlu-γGlu-C18 diacid])AQ[Aib][Orn]FI[dE][αMeY]LIEGGPSSGEPPPE-NH2) | 1090 | 0.0177 | 9.71 | 0.214 | 11.3 | 1.81
5 | CC[C@H](C)[C@H](NC(=O)[C@H](CC(C)C)NC(=O)[C@H](Cc1ccc(O)cc1)NC(=O)[C@@H](CCC(=O)O)NC(=O)[C@@H](NC(=O)[C@H](Cc1ccccc1)NC(=O)[C@H](CCCN)NC(=O)C(C)(C)NC(=O)[C@H](CCC(N)=O)NC(=O)[C@H](C)NC(=O)[C@H](CCCCNC(=O)CC[C@H](NC(=O)CC[C@H](NC(=O)CCCCCCCCCCCCCCCCC(=O)O)C(=O)O)C(=O)O)NC(=O)[C@H](CCCN)NC(=O)[C@H](CC(=O)O)NC(=O)[C@H](CC(C)C)NC(=O)[C@](C)(CC(C)C)NC(=O)[C@@H](NC(=O)[C@](C)(CO)NC(=O)[C@H](Cc1ccncc1)NC(=O)[C@H](CC(=O)O)NC(=O)[C@H](CO)NC(=O)[C@@H](NC(=O)[C@](C)(Cc1ccccc1F)NC(=O)[C@@H](NC(=O)CNC(=O)[C@H](CCC(N)=O)NC(=O)C(C)(C)NC(=O)[C@@H](N)Cc1ccc(O)cc1)[C@@H](C)O)[C@@H](C)O)[C@@H](C)CC)[C@@H](C)CC)C(=O)N[C@@H](CCC(=O)O)C(=O)NCC(=O)NCC(=O)N1CCC[C@H]1C(=O)N[C@@H](CO)C(=O)N[C@@H](CO)C(=O)NCC(=O)N[C@@H](CCC(=O)O)C(=O)N1CCC[C@H]1C(=O)N1CCC[C@H]1C(=O)N1CCC[C@H]1C(=O)N[C@@H](CCC(=O)O)C(N)=O [Example 448] (H-Y[Aib]QGT[αMePhe(2-F)]TSD[4Pal][αMeS]I[αMeL]LD[Orn]K([γGlu-γGlu-C18 diacid])AQ[Aib][Orn]FI[dE]YLIEGGPSSGEPPPE-NH2) | 302 | 0.0171 | 4.54 | 0.336 | 19.5 | 1.35
